Reference: ChEMBL document CHEMBL5316327, “Design and Synthesis of Orally Active Quinolyl Pyrazinamides as Sigma 2 Receptor Ligands for the Treatment of Pancreatic Cancer” (J Med Chem, 2023)
The source made the active and inactive calls. The calls are words filed in the database; no cut-off is given here.

Tests used:
HCT-116 [1] = assay: Induction of cell cycle arrest in human HCT-116 cells assessed as accumulation of cells in G0/G1 phase at 10 uM measured after 24 hrs by propidium iodide staining-based flow cytometric analysis (reference value: 43%); assay type: functional
HCT-116 [2] = assay: Antagonistic cytotoxicity against human HCT-116 cells at upto 1 uM measured after 6 days in presence of disulfiram by crystal violet staining based analysis; assay type: functional, cell-based; details: time 6.0 day
HCT-116 [3] = assay: Induction of cell cycle arrest in human HCT-116 cells assessed as accumulation of cells in G2/M phase at 10 uM measured after 24 hrs by propidium iodide staining-based flow cytometric analysis (reference value: 10%); assay type: functional
[4] = AUC (0 to infinity) in CD-1 mouse plasma at 10 mg/kg, iv; assay type: ADME, organism-based; parameters: dose 10 mg/kg, route iv
[5] = Metabolic stability in human liver microsomes assessed as half life at 10 uM measured upto 60 mins in presence of NADPH by LC-MS/MS analysis; assay type: ADME, Microsome; details: liver microsomes
[6] = AUC (0 to time of last detectable concentration) in CD-1 mouse plasma at 10 mg/kg, iv; assay type: ADME, organism-based; parameters: dose 10 mg/kg, route iv
MIA PaCa-2 [7] = assay: Synergistic cytotoxicity in human MIA PaCa-2 cells at upto 1 uM measured after 7 days in presence of SC144 by crystal violet staining based analysis; assay type: functional, cell-based; details: time 7.0 day
MIA PaCa-2 [8] = assay: Synergistic cytotoxicity in human MIA PaCa-2 cells at upto 1 uM measured after 7 days in presence of oxaliplatin by crystal violet staining based analysis; assay type: functional, cell-based; details: time 7.0 day
HCT-116 [9] = assay: Induction of apoptosis in human HCT-116 cells assessed as viable cells at 1.0 uM measured after 48 hrs by Annexin V-Alexa Fluor 488/propidium iodide staining based flow cytometry (reference value: 79.69%); assay type: functional; details: read-out: Activity
D(1B) dopamine receptor = D(1B) dopamine receptor (Homo sapiens, UniProt P21918); assay: Binding affinity to dopamine D5 receptor (unknown origin) assessed as inhibition constant
MIA PaCa-2 [10] = assay: Synergistic cytotoxicity in human MIA PaCa-2 cells at upto 1 uM measured after 7 days in presence of vemurafenib by crystal violet staining based analysis; assay type: functional, cell-based; details: time 7.0 day
HCT-116 [11] = assay: Induction of apoptosis in human HCT-116 cells assessed as viable cells at 5.0 uM measured after 48 hrs by Annexin V-Alexa Fluor 488/propidium iodide staining based flow cytometry (reference value: 79.69%); assay type: functional; details: read-out: Activity
[12] = Solubility of the compound; assay type: physicochemical
MIA PaCa-2 [13] = assay: Additive ferroptosis activity in human MIA-PaCa-2 cells at upto 1 uM measured after 7 days in presence of FIN56 by crystal violet staining based analysis; assay type: functional, cell-based; details: time 7.0 day
[14] = Toxicity in C57BL/6 mouse assessed as effect on body weight at 30 mg/kg, po administered for 32 days and measured on day 1 to 3,5,6,8 to 32 in presence of copper sulfate; assay type: organism-based; details: in vivo, 768 h, time 32 day
[15] = Toxicity in C57BL/6 mouse assessed as effect on body weight at 30 mg/kg, po measured upto 32 days in presence of copper sulfate; assay type: organism-based; details: in vivo, 768 h, time < 32 day
HCT-116 [16] = assay: Induction of cell cycle arrest in human HCT-116 cells assessed as accumulation of cells in S phase at 5 uM measured after 24 hrs by propidium iodide staining-based flow cytometric analysis (reference value: 47%); assay type: functional
MIA PaCa-2 [17] = assay: Synergistic cytotoxicity in human MIA PaCa-2 cells at upto 1 uM measured after 7 days in presence of irinotecan by crystal violet staining based analysis; assay type: functional, cell-based; details: time 7.0 day
MIA PaCa-2 [18] = assay: Induction of apoptosis in human MIA PaCa-2 cells assessed as early apoptotic cells at 1.0 uM measured after 48 hrs by Annexin V-Alexa Fluor 488/propidium iodide staining based flow cytometry (reference value: 4.11%); assay type: functional
MIA PaCa-2 [19] = assay: Induction of apoptosis in human MIA PaCa-2 cells assessed as viable cells at […] measured after 48 hrs by Annexin V-Alexa Fluor 488/propidium iodide staining based flow cytometry (reference value: 82.23%); assay type: functional; details: dose 2.5 µM, read-out: Activity
[20] = Cmax in CD-1 mouse plasma at 20 mg/kg, po; assay type: ADME, organism-based; parameters: dose 20 mg/kg, route po
MIA PaCa-2 [21] = assay: Induction of apoptosis in human MIA PaCa-2 cells assessed as late apoptotic cells at […] measured after 48 hrs by Annexin V-Alexa Fluor 488/propidium iodide staining based flow cytometry (reference value: 6.63%); assay type: functional; details: dose 2.5 µM
MIA PaCa-2 [22] = assay: Induction of apoptosis in human MIA PaCa-2 cells assessed as viable cells at 10.0 uM measured after 48 hrs by Annexin V-Alexa Fluor 488/propidium iodide staining based flow cytometry (reference value: 82.23%); assay type: functional; details: read-out: Activity
[23] = AUC (0 to time of last detectable concentration) in CD-1 mouse plasma at 20 mg/kg, po; assay type: ADME, organism-based; parameters: dose 20 mg/kg, route po
HCT-116 [24] = assay: Induction of cell cycle arrest in human HCT-116 cells assessed as accumulation of cells in G2/M phase at 5 uM measured after 24 hrs by propidium iodide staining-based flow cytometric analysis (reference value: 10%); assay type: functional
HCT-116 [25] = assay: Induction of apoptosis in human HCT-116 cells assessed as viable cells at […] measured after 48 hrs by Annexin V-Alexa Fluor 488/propidium iodide staining based flow cytometry (reference value: 79.69%); assay type: functional; details: dose 2.5 µM, read-out: Activity
HCT-116 [26] = assay: Induction of apoptosis in human HCT-116 cells assessed as necrotic cells at 1.0 uM measured after 48 hrs by Annexin V-Alexa Fluor 488/propidium iodide staining based flow cytometry (reference value: 9.06%); assay type: functional
MIA PaCa-2 [27] = assay: Inhibition of colony formation in human MIA PaCa-2 cells at 0.04 to 30 uM pretreated with ammonium tetrathiomolybdate for 4 hrs followed by compound addition and measured after 6 days; assay type: functional, cell-based; details: dose 0.04-30 µM, time 6.0 day
HCT-116 [28] = assay: Induction of cell cycle arrest in human HCT-116 cells assessed as accumulation of cells in G0/G1 phase at 5 uM measured after 24 hrs by propidium iodide staining-based flow cytometric analysis (reference value: 43%); assay type: functional
MIA PaCa-2 [29] = assay: Additive ferroptosis activity in human MIA-PaCa-2 cells at upto 1 uM measured after 7 days in presence of ferrostatin-1 by crystal violet staining based analysis; assay type: functional, cell-based; details: time 7.0 day
MIA PaCa-2 [30] = assay: Induction of apoptosis in human MIA PaCa-2 cells assessed as necrotic cells at 10.0 uM measured after 48 hrs by Annexin V-Alexa Fluor 488/propidium iodide staining based flow cytometry (reference value: 7.03%); assay type: functional
[31] = molecular target: 5-hydroxytryptamine receptor 2B (Homo sapiens, UniProt P41595); assay: Binding affinity to 5-HT2B receptor (unknown origin) assessed as inhibition constant
[32] = Oral bioavailability in CD-1 mouse plasma at 20 mg/kg; assay type: ADME, organism-based; details: in vivo
MIA PaCa-2 [33] = assay: Induction of cell cycle arrest in human MIA PaCa-2 cells assessed as accumulation of cells in S phase at 10 uM measured after 24 hrs by propidium iodide staining-based flow cytometric analysis (reference value: 31%); assay type: functional
HCT-116 [34] = assay: Induction of cell cycle arrest in human HCT-116 cells assessed as accumulation of cells in G0/G1 phase at […] measured after 24 hrs by propidium iodide staining-based flow cytometric analysis (reference value: 43%); assay type: functional; details: dose 2.5 µM
MIA PaCa-2 [35] = assay: Synergistic ferroptosis activity in human MIA-PaCa-2 cells at upto 1 uM measured after 7 days in presence of erastin by crystal violet staining based analysis; assay type: functional, cell-based; details: time 7.0 day

Chain of 5-hydroxytryptamine receptor 2B (P41595 whole entry): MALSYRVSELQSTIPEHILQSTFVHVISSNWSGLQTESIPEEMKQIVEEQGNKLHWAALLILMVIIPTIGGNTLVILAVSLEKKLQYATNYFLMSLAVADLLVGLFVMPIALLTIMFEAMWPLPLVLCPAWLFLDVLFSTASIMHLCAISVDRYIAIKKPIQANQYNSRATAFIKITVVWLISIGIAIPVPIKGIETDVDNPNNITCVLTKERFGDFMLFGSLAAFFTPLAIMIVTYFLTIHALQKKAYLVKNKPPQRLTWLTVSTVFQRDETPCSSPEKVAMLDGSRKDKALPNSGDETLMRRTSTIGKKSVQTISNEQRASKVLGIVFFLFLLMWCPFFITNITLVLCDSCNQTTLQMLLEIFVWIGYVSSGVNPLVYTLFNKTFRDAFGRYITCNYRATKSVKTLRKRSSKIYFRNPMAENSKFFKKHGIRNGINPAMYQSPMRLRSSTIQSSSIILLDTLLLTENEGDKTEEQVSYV
Chain of D(1B) dopamine receptor (P21918 whole entry): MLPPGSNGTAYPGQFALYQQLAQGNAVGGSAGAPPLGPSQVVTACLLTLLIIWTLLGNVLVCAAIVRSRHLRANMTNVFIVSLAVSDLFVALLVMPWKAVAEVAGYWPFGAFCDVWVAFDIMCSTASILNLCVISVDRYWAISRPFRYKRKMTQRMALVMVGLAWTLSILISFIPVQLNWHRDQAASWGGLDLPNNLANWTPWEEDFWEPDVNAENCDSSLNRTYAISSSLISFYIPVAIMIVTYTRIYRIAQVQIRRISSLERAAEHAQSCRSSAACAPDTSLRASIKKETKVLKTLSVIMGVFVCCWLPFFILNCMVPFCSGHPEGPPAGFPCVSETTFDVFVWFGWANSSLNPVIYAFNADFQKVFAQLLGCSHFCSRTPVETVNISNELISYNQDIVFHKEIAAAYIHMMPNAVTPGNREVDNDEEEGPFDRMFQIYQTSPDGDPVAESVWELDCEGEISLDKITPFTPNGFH

With CCN(CC)CCCC(C)Nc1cnc(C(=O)Nc2ccc(Cl)c3cccnc23)cn1 (stereo unspecified) the Activity (HCT-116 [1]) was 57%, the Activity (HCT-116 [2]) was “inactive” and the Activity (HCT-116 [3]) was 22%. The AUC(0-inf) [4] was 2680 ng·h/mL, the half-life at 10 µM [5] was greater than 1 h and the AUC [6] was 2600 ng·h/mL. The Activity (MIA PaCa-2 [7]) was “inactive”, the Activity (MIA PaCa-2 [8]) was “inactive” and the viability at 1 µM (HCT-116 [9]) was 78.3%. The Ki (D(1B) dopamine receptor) was 1550 nM, the Activity (MIA PaCa-2 [10]) was “inactive” and the viability at 5 µM (HCT-116 [11]) was 64.1%. The solubility [12] was greater than 5000 µg/mL, the Activity (MIA PaCa-2 [13]) was “Active” and the Activity [14] was “Non-Toxic”. For the same molecule, the Activity [15] was “Non-Toxic”, the Activity (HCT-116 [16]) was 35% and the Activity (MIA PaCa-2 [17]) was “inactive”. For the same molecule, the Activity (MIA PaCa-2 [18]) was 11.44%, the viability at […] (MIA PaCa-2 [19]) was 54.5% and the Cmax [20] was 254 ng/mL. For the same molecule, the Activity (MIA PaCa-2 [21]) was 25.72%, the viability at 10 µM (MIA PaCa-2 [22]) was 6.27% and the AUC [23] was 3110 ng·h/mL. It also gave an Activity (HCT-116 [24]) of 22%, a viability at […] (HCT-116 [25]) of 68.1% and an Activity (HCT-116 [26]) of 9.72%. The inhibition (MIA PaCa-2 [27]) was “inactive”, the Activity (HCT-116 [28]) was 44% and the Activity (MIA PaCa-2 [29]) was “Active”. It also gave an Activity (MIA PaCa-2 [30]) of 7.21%, a Ki [31] of 427 nM and an F [32] of 60%. For the same molecule, the Activity (MIA PaCa-2 [33]) was 14%, the Activity (HCT-116 [34]) was 48% and the Activity (MIA PaCa-2 [35]) was “Active”.
